Laboratory results reported in the NIST ThermoML archive (doi:10.1021/acs.jced.7b01053).
Values joined by “and” are separate entries in the source; they are usually repeats but may differ in a detail not shown here. Equal values may be shown once.

Assay: mn = molality of the nth substance listed, in mol/kg
Conditions: 293 K, 100 kPa, Liquid, Alternating current cell with electrodes

CCC(=O)[O-].C[NH2+]CCO [2-hydroxy-N-methylethanaminium propionate] + O
Conditions | electrical conductivity [S/m]
m1 = 0.01487 | 0.066
m1 = 0.0155 | 0.073
m1 = 0.03159 | 0.133
m1 = 0.03183 | 0.139
m1 = 0.04881 | 0.195
m1 = 0.0489 | 0.202
m1 = 0.06492 | 0.266
m1 = 0.06527 | 0.277
m1 = 0.08046 | 0.329
m1 = 0.08214 | 0.323
m1 = 0.09748 | 0.384
m1 = 0.09889 | 0.378
m1 = 0.1136 | 0.436
m1 = 0.1159 | 0.427
m1 = 0.1305 | 0.487
m1 = 0.1324 | 0.476
m1 = 0.1464 | 0.536
m1 = 0.1495 | 0.523
m1 = 0.1622 | 0.604
m1 = 0.1651 | 0.568
m1 = 0.1776 | 0.648
m1 = 0.1814 | 0.613
m1 = 0.1935 | 0.69
m1 = 0.1966 | 0.654
m1 = 0.2081 | 0.727
m1 = 0.2121 | 0.694
m1 = 0.223 | 0.764
m1 = 0.2264 | 0.702
m1 = 0.237 | 0.798
m1 = 0.2408 | 0.721
m1 = 0.25 | 0.829
m1 = 0.2542 | 0.723
m1 = 0.2632 | 0.872
m1 = 0.2677 | 0.786
m1 = 0.2756 | 0.908
m1 = 0.28 | 0.814
m1 = 0.2879 | 0.933
m1 = 0.2922 | 0.834
m1 = 0.2994 | 0.957
m1 = 0.3036 | 0.86
m1 = 0.3106 | 0.98
m1 = 0.3149 | 0.906
m1 = 0.3211 | 1
m1 = 0.3255 | 0.923
m1 = 0.3317 | 1.02
m1 = 0.3357 | 0.946
m1 = 0.3415 | 1.04
m1 = 0.3454 | 0.967
m1 = 0.3511 | 1.06
m1 = 0.355 | 0.987
m1 = 0.3602 | 1.08
m1 = 0.364 | 1.01
m1 = 0.3691 | 1.09
m1 = 0.3726 | 1.03
m1 = 0.3774 | 1.11
m1 = 0.3808 | 1.05
m1 = 0.3856 | 1.13
m1 = 0.3885 | 1.05
m1 = 0.3933 | 1.15
m1 = 0.396 | 1.07
m1 = 0.4009 | 1.17
m1 = 0.4032 | 1.09
m1 = 0.4079 | 1.19
m1 = 0.4098 | 1.09
m1 = 0.4148 | 1.21
m1 = 0.4165 | 1.11
m1 = 0.4227 | 1.12

CCC(=O)[O-].[NH3+]CCO [2-hydroxyethan-1-aminium propionate] + O
Conditions | electrical conductivity
m1 = 0.01786 | 0.107 S/m
m1 = 0.022 | 0.116 S/m
m1 = 0.03491 | 0.198 S/m
m1 = 0.04447 | 0.218 S/m
m1 = 0.05416 | 0.312 S/m
m1 = 0.06841 | 0.338 S/m
m1 = 0.0728 | 0.4 S/m
m1 = 0.09126 | 0.43 S/m
m1 = 0.0929 | 0.485 S/m
m1 = 0.1121 | 0.574 S/m
m1 = 0.1137 | 0.521 S/m
m1 = 0.1322 | 0.658 S/m
m1 = 0.1373 | 0.612 S/m
m1 = 0.1504 | 0.74 S/m
m1 = 0.1594 | 0.695 S/m
m1 = 0.1692 | 0.821 S/m
m1 = 0.1822 | 0.78 S/m
m1 = 0.188 | 0.897 S/m
m1 = 0.2038 | 0.845 S/m
m1 = 0.2067 | 0.982 S/m
m1 = 0.2263 | 0.921 S/m
m1 = 0.2328 | 1.08 S/m
m1 = 0.2472 | 0.991 S/m
m1 = 0.2532 | 1.16 S/m
m1 = 0.268 | 1.06 S/m
m1 = 0.2729 | 1.24 S/m
m1 = 0.2877 | 1.12 S/m
m1 = 0.2905 | 1.3 S/m
m1 = 0.3074 | 1.18 S/m and 1.37 S/m
m1 = 0.3237 | 1.43 S/m
m1 = 0.3251 | 1.24 S/m
m1 = 0.3388 | 1.48 S/m
m1 = 0.3427 | 1.29 S/m
m1 = 0.3534 | 1.53 S/m
m1 = 0.3594 | 1.34 S/m
m1 = 0.3669 | 1.58 S/m
m1 = 0.3755 | 1.39 S/m
m1 = 0.3798 | 1.63 S/m
m1 = 0.3905 | 1.43 S/m
m1 = 0.3917 | 1.67 S/m
m1 = 0.4032 | 1.71 S/m
m1 = 0.4055 | 1.48 S/m
m1 = 0.4138 | 1.74 S/m
m1 = 0.4195 | 1.51 S/m
m1 = 0.424 | 1.78 S/m
m1 = 0.4334 | 1.55 S/m
m1 = 0.4465 | 1.59 S/m
m1 = 0.4591 | 1.62 S/m
m1 = 0.4709 | 1.65 S/m
m1 = 0.4825 | 1.67 S/m
m1 = 0.5351 | 1.82 S/m
m1 = 0.5473 | 1.85 S/m
m1 = 0.5594 | 1.89 S/m
m1 = 0.5705 | 1.93 S/m

CC(=O)[O-].[NH3+]CCO [2-hydroxyethylammonium acetate] + O
Conditions | electrical conductivity [S/m]
m1 = 0.02015 | 0.13
m1 = 0.0241 | 0.138
m1 = 0.03983 | 0.262
m1 = 0.04796 | 0.274
m1 = 0.05774 | 0.359
m1 = 0.07416 | 0.45
m1 = 0.07452 | 0.4
m1 = 0.09015 | 0.539
m1 = 0.09982 | 0.512
m1 = 0.1057 | 0.618
m1 = 0.1213 | 0.702
m1 = 0.1267 | 0.628
m1 = 0.1356 | 0.775
m1 = 0.1485 | 0.835
m1 = 0.1519 | 0.737
m1 = 0.1621 | 0.9
m1 = 0.1743 | 0.958
m1 = 0.1778 | 0.847
m1 = 0.1867 | 1.02
m1 = 0.2004 | 1.08
m1 = 0.2025 | 0.95
m1 = 0.2157 | 1.14
m1 = 0.2285 | 1.06
m1 = 0.2326 | 1.21
m1 = 0.2502 | 1.29
m1 = 0.2521 | 1.16
m1 = 0.2691 | 1.37
m1 = 0.2755 | 1.23
m1 = 0.2868 | 1.44
m1 = 0.2977 | 1.33
m1 = 0.3032 | 1.44
m1 = 0.3189 | 1.48
m1 = 0.3199 | 1.42
m1 = 0.3337 | 1.56
m1 = 0.3404 | 1.49
m1 = 0.3476 | 1.61
m1 = 0.3609 | 1.61
m1 = 0.3615 | 1.57
m1 = 0.3811 | 1.64
m1 = 0.3855 | 1.75
m1 = 0.4003 | 1.72
m1 = 0.4075 | 1.86
m1 = 0.4184 | 1.77
m1 = 0.4279 | 1.93
m1 = 0.4359 | 1.83
m1 = 0.4463 | 1.98
m1 = 0.4526 | 1.87
m1 = 0.4627 | 2.03
m1 = 0.4642 | 1.9
m1 = 0.4774 | 2.08
m1 = 0.4797 | 1.94
m1 = 0.4943 | 1.99
m1 = 0.5085 | 2.04
m1 = 0.5221 | 2.09
m1 = 0.5351 | 2.13
m1 = 0.5473 | 2.17
m1 = 0.5594 | 2.23
m1 = 0.5705 | 2.27

CCCC(=O)[O-].[NH3+]CCO [2-hydroxy ethylammonium butanoate] + O
Conditions | electrical conductivity [S/m]
m1 = 0.01855 | 0.092
m1 = 0.0207 | 0.107
m1 = 0.03507 | 0.163
m1 = 0.0415 | 0.196
m1 = 0.05678 | 0.264
m1 = 0.06247 | 0.295
m1 = 0.07651 | 0.338
m1 = 0.08283 | 0.372
m1 = 0.09713 | 0.41
m1 = 0.1049 | 0.449
m1 = 0.119 | 0.485
m1 = 0.1258 | 0.511
m1 = 0.1407 | 0.563
m1 = 0.1476 | 0.585
m1 = 0.1628 | 0.637
m1 = 0.1681 | 0.649
m1 = 0.184 | 0.709
m1 = 0.1888 | 0.711
m1 = 0.2055 | 0.77
m1 = 0.2087 | 0.764
m1 = 0.2251 | 0.834
m1 = 0.2284 | 0.81
m1 = 0.2448 | 0.894
m1 = 0.2469 | 0.857
m1 = 0.2626 | 0.946
m1 = 0.2654 | 0.9
m1 = 0.2809 | 0.994
m1 = 0.2825 | 0.94
m1 = 0.298 | 1.04
m1 = 0.3001 | 0.982
m1 = 0.3153 | 1.09
m1 = 0.3165 | 1.02
m1 = 0.331 | 1.12
m1 = 0.3327 | 1.06
m1 = 0.3468 | 1.17
m1 = 0.3475 | 1.09
m1 = 0.3613 | 1.2
m1 = 0.3622 | 1.12
m1 = 0.3758 | 1.15
m1 = 0.3759 | 1.23
m1 = 0.3892 | 1.27
m1 = 0.3894 | 1.18
m1 = 0.4021 | 1.2
m1 = 0.4023 | 1.3
m1 = 0.4144 | 1.23
m1 = 0.4145 | 1.32
m1 = 0.4231 | 1.34
m1 = 0.4259 | 1.25
m1 = 0.4344 | 1.36
m1 = 0.4374 | 1.27
m1 = 0.4449 | 1.39
m1 = 0.448 | 1.29
m1 = 0.4554 | 1.41
m1 = 0.4584 | 1.32
m1 = 0.4651 | 1.43
m1 = 0.4681 | 1.33
m1 = 0.4746 | 1.45
m1 = 0.4775 | 1.35
m1 = 0.4835 | 1.46
m1 = 0.4864 | 1.38
m1 = 0.4922 | 1.48
m1 = 0.495 | 1.4
m1 = 0.5005 | 1.5
m1 = 0.5032 | 1.41
m1 = 0.5085 | 1.52
m1 = 0.516 | 1.54
m1 = 0.5231 | 1.55

CCCC(=O)O.OCCNCCO [diethanolamine butyrate] + O
Conditions | electrical conductivity [S/m]
m1 = 0.01798 | 0.077
m1 = 0.01805 | 0.09
m1 = 0.03516 | 0.166
m1 = 0.03577 | 0.142
m1 = 0.05397 | 0.257
m1 = 0.05531 | 0.207
m1 = 0.0709 | 0.318
m1 = 0.07433 | 0.284
m1 = 0.09407 | 0.346
m1 = 0.09424 | 0.389
m1 = 0.1085 | 0.453
m1 = 0.1122 | 0.403
m1 = 0.1275 | 0.519
m1 = 0.1316 | 0.486
m1 = 0.1455 | 0.581
m1 = 0.1496 | 0.538
m1 = 0.1638 | 0.641
m1 = 0.1683 | 0.577
m1 = 0.1807 | 0.696
m1 = 0.186 | 0.597
m1 = 0.1982 | 0.75
m1 = 0.2035 | 0.651
m1 = 0.2144 | 0.801
m1 = 0.2203 | 0.694
m1 = 0.231 | 0.87
m1 = 0.237 | 0.725
m1 = 0.2464 | 0.912
m1 = 0.2525 | 0.764
m1 = 0.2616 | 0.954
m1 = 0.2679 | 0.782
m1 = 0.2758 | 0.994
m1 = 0.2824 | 0.821
m1 = 0.2899 | 1.03
m1 = 0.297 | 0.862
m1 = 0.3032 | 1.06
m1 = 0.3106 | 0.908
m1 = 0.3162 | 1.1
m1 = 0.324 | 0.95
m1 = 0.3283 | 1.13
m1 = 0.3321 | 0.98
m1 = 0.3402 | 1.16
m1 = 0.3438 | 1
m1 = 0.3514 | 1.19
m1 = 0.3555 | 1.02
m1 = 0.3623 | 1.22
m1 = 0.3665 | 1.05
m1 = 0.3726 | 1.24
m1 = 0.3774 | 1.05
m1 = 0.3826 | 1.27
m1 = 0.3875 | 1.07
m1 = 0.3917 | 1.29
m1 = 0.3975 | 1.1
m1 = 0.4022 | 1.32
m1 = 0.4068 | 1.12
m1 = 0.4115 | 1.35
m1 = 0.416 | 1.14
m1 = 0.4201 | 1.38
m1 = 0.4245 | 1.16
m1 = 0.4284 | 1.4
m1 = 0.433 | 1.18
m1 = 0.4368 | 1.43
m1 = 0.4446 | 1.45
